Assay results published in patent US11208412B2 (DAEGU-GYEONGBUK MEDICAL INNOVATION FOUNDATION, priority 2017, dated 2021).

What was measured:
Test in all cases: Kinase selectivity, DiscoverX scanMAX Kinase assay panel (% control)
Type in all cases: binding
[1] = molecular target: T1, kinases of the scanMAX Kinase assay panel (Homo sapiens, UniProt Q9Y2H9); conditions: MAST1; 1 uM
T1 construct: purchased DiscoverX Co. (contract measurement) scanMAX Kinase assay panel
Procedure, shortened: (§1)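 Each enzyme is treated with drug at 1 uM in DMSO, then signal is scaled between a positive control (0%) and DMSO (100%) to give % control. Kinases with % control under 35% are scored as inhibited.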

[2] = molecular target: T2, kinases of the scanMAX Kinase assay panel (Homo sapiens, UniProt P35968); conditions: kinase VEGFR2; 1 uM in DMSO
T2 construct: purchased DiscoverX Co. (contract measurement) scanMAX Kinase assay panel
Procedure, shortened: as §1

[3] = molecular target: T3, kinases of the scanMAX Kinase assay panel (Homo sapiens, UniProt O14730); conditions: kinase RIOK3; 1 uM in DMSO
T3 construct: purchased DiscoverX Co. (contract measurement) scanMAX Kinase assay panel
T3 sequence (O14730 1-519): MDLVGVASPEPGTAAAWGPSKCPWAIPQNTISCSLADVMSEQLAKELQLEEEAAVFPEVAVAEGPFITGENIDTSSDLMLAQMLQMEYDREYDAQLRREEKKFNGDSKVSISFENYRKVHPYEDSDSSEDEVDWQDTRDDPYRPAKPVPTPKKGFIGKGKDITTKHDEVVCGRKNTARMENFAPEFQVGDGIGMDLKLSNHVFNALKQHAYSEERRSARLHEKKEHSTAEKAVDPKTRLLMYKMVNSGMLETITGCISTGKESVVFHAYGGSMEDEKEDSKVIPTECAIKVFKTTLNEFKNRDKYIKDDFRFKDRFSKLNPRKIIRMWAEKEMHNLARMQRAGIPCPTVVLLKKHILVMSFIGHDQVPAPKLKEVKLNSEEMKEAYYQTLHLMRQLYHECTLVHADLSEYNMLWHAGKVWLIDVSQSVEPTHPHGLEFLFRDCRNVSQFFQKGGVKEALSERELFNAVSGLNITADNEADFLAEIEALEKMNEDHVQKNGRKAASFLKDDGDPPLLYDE
Procedure, shortened: as §1

[4] = molecular target: T4, kinases of the scanMAX Kinase assay panel (Homo sapiens, UniProt Q15208); conditions: NDR1; 1 uM
T4 construct: purchased DiscoverX Co. (contract measurement) scanMAX Kinase assay panel
Procedure, shortened: as §1

[5] = molecular target: T5, kinases of the scanMAX Kinase assay panel (Homo sapiens, UniProt Q5S007, G2019S); conditions: LRRK2(G2019S); 1 uM
T5 construct: purchased DiscoverX Co. (contract measurement) scanMAX Kinase assay panel
Procedure, shortened: as §1

[6] = molecular target: T6, kinases of the scanMAX Kinase assay panel (Homo sapiens, UniProt Q8N4C8); conditions: MINK; 1 uM
T6 construct: purchased DiscoverX Co. (contract measurement) scanMAX Kinase assay panel
Procedure, shortened: as §1

[7] = molecular target: T7, kinases of the scanMAX Kinase assay panel (Homo sapiens, UniProt Q8IWQ3); conditions: BRSK2; 1 uM
T7 construct: purchased DiscoverX Co. (contract measurement) scanMAX Kinase assay panel
T7 sequence (Q8IWQ3 1-736): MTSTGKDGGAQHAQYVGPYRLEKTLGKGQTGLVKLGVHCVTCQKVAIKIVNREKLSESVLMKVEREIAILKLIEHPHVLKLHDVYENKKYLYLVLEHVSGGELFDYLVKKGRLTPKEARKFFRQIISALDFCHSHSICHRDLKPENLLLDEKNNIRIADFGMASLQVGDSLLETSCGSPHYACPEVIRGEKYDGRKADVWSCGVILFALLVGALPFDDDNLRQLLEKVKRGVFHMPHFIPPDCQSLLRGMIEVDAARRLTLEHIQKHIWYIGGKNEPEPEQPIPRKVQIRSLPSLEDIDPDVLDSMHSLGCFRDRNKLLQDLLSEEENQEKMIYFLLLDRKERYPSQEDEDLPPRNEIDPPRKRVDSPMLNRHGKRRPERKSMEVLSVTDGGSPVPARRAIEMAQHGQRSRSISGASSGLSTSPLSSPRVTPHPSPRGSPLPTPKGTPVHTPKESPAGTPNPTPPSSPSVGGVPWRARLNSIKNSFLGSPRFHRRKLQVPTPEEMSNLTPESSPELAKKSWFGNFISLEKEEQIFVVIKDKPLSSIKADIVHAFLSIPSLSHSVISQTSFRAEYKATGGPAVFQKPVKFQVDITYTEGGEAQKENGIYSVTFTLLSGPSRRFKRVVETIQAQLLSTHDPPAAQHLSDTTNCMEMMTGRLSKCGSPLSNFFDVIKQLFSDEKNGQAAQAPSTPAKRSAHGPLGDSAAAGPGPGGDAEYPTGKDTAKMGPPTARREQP
Procedure, shortened: as §1

[8] = molecular target: T8, kinases of the scanMAX Kinase assay panel (Homo sapiens, UniProt P42336, E545K); conditions: PIK3CA(E545K); 1 uM
T8 construct: purchased DiscoverX Co. (contract measurement) scanMAX Kinase assay panel
Procedure, shortened: as §1

[9] = molecular target: T9, kinases of the scanMAX Kinase assay panel (Homo sapiens, UniProt Q9HBH9); conditions: MKNK2; 1 uM
T9 construct: purchased DiscoverX Co. (contract measurement) scanMAX Kinase assay panel
Procedure, shortened: as §1

[10] = molecular target: T10, kinases of the scanMAX Kinase assay panel (Homo sapiens, UniProt Q13882); conditions: BRK; 1 uM
T10 construct: purchased DiscoverX Co. (contract measurement) scanMAX Kinase assay panel
Procedure, shortened: as §1

[11] = molecular target: T11, kinases of the scanMAX Kinase assay panel (Homo sapiens, UniProt P42336, E545A); conditions: PIK3CA(E545A); 1 uM
T11 construct: purchased DiscoverX Co. (contract measurement) scanMAX Kinase assay panel
Procedure, shortened: as §1

[12] = molecular target: T12, kinases of the scanMAX Kinase assay panel (Homo sapiens, UniProt P48730); conditions: CSNK1D; 1 uM
T12 construct: purchased DiscoverX Co. (contract measurement) scanMAX Kinase assay panel
Procedure, shortened: as §1

[13] = molecular target: T13, kinases of the scanMAX Kinase assay panel (Homo sapiens, UniProt Q86V86); conditions: PIM3; 1 uM
T13 construct: purchased DiscoverX Co. (contract measurement) scanMAX Kinase assay panel
Procedure, shortened: as §1

[14] = molecular target: T14, kinases of the scanMAX Kinase assay panel (Homo sapiens, UniProt P00519, T315I); conditions: 1 uM
T14 construct: purchased DiscoverX Co. (contract measurement) scanMAX Kinase assay panel
Procedure, shortened: as §1

[15] = molecular target: T15, kinases of the scanMAX Kinase assay panel (Homo sapiens, UniProt Q9Y4K4); conditions: MAP4K5; 1 uM
T15 construct: purchased DiscoverX Co. (contract measurement) scanMAX Kinase assay panel
Procedure, shortened: as §1

[16] = molecular target: T16, kinases of the scanMAX Kinase assay panel (Homo sapiens, UniProt P10721); conditions: 1 uM
T16 construct: purchased DiscoverX Co. (contract measurement) scanMAX Kinase assay panel
Procedure, shortened: as §1

T8 sequence (P42336 whole entry E545K): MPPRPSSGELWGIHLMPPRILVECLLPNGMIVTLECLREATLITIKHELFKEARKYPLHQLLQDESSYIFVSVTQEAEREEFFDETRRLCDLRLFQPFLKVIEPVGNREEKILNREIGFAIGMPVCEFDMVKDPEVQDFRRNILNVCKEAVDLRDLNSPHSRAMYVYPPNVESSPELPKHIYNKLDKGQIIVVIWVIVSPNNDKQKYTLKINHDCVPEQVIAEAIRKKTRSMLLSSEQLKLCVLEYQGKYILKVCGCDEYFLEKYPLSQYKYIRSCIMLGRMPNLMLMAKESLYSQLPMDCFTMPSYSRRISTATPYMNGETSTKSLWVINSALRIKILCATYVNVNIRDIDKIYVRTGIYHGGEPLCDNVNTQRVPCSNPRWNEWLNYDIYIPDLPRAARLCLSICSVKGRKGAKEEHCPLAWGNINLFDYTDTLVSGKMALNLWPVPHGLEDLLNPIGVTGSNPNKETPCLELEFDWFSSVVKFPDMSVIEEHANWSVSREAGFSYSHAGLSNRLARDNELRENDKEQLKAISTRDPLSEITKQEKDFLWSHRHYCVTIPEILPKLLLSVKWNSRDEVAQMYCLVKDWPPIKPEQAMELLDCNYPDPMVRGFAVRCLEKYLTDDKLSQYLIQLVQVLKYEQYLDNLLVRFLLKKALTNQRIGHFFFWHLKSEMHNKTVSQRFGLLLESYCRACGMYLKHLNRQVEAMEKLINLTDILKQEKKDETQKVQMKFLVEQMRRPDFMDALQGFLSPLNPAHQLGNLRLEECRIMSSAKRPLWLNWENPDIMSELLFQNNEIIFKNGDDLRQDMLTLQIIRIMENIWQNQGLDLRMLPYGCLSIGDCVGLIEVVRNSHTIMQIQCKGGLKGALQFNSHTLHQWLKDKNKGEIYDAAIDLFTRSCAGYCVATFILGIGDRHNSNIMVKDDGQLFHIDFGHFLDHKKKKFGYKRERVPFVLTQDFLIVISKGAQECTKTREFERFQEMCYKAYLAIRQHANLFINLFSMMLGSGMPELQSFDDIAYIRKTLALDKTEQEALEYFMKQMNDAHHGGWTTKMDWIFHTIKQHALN
T12 sequence (P48730 whole entry): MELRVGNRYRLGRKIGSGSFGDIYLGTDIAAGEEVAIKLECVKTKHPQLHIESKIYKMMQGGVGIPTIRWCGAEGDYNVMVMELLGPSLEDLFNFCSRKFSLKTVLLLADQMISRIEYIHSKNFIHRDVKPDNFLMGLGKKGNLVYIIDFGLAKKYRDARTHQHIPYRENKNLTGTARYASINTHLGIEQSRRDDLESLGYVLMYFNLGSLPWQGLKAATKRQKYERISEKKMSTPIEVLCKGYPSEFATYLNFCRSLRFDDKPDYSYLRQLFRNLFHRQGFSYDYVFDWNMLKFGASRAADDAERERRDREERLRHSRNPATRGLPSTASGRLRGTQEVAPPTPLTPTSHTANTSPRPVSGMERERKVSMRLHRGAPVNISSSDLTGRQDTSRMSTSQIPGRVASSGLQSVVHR
T10 sequence (Q13882 whole entry): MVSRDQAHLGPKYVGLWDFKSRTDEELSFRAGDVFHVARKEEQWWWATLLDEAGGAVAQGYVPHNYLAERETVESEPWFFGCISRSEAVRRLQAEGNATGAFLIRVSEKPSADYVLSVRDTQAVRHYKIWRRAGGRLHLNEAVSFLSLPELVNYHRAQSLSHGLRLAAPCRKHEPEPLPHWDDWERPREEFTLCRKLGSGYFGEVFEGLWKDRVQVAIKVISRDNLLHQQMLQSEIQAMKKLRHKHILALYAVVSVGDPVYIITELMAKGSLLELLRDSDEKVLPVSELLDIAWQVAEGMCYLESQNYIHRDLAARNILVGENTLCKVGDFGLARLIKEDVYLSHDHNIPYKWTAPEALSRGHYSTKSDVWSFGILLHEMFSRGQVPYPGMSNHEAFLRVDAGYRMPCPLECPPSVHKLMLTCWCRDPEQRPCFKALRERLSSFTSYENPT
T9 sequence (Q9HBH9 whole entry): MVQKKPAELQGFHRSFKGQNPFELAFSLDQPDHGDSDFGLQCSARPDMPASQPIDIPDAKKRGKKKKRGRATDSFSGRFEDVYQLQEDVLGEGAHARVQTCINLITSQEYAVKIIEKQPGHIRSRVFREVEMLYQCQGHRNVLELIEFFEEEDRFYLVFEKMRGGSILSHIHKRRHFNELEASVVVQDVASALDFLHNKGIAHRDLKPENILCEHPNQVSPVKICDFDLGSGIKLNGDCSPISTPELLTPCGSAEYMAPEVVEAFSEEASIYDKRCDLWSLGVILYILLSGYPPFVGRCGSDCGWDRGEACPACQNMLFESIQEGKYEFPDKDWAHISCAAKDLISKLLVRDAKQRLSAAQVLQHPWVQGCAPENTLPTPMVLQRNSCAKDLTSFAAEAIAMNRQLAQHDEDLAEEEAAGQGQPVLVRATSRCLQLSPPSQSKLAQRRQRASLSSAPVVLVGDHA
T6 sequence (Q8N4C8 whole entry): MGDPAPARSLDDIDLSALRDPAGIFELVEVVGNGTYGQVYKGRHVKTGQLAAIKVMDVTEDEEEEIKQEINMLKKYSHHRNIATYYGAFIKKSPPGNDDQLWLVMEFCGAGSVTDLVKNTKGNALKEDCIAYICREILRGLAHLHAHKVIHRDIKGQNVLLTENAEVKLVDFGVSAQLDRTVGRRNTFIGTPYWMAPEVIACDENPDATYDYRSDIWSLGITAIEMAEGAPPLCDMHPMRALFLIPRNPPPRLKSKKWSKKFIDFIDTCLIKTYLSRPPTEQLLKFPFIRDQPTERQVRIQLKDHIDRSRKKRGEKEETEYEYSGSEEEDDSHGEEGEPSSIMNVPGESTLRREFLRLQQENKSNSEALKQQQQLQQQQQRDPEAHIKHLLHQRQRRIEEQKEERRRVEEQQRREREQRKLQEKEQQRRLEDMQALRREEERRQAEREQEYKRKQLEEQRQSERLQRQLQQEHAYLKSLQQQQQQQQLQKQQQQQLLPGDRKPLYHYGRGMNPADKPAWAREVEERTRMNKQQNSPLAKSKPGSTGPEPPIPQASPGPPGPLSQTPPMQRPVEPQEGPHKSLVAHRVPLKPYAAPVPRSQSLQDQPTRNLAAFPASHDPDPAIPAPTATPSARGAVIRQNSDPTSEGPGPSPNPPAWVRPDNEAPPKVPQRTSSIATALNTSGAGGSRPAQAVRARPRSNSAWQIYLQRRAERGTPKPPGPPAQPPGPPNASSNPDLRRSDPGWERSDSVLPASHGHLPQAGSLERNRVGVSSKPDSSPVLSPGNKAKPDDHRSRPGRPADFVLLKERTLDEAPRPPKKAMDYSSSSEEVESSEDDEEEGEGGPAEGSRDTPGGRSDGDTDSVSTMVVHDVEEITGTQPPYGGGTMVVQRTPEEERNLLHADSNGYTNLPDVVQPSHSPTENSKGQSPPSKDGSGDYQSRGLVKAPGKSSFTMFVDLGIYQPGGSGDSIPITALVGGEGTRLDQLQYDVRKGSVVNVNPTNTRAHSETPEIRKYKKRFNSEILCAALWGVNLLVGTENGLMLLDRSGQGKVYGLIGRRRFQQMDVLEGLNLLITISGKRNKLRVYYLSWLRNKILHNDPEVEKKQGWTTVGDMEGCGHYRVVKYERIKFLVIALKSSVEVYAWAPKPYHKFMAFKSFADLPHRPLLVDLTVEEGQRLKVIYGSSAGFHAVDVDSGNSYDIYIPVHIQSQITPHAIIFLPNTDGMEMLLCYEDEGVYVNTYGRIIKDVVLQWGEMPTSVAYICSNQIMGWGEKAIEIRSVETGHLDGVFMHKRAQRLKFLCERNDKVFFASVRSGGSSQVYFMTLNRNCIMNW
T15 sequence (Q9Y4K4 whole entry): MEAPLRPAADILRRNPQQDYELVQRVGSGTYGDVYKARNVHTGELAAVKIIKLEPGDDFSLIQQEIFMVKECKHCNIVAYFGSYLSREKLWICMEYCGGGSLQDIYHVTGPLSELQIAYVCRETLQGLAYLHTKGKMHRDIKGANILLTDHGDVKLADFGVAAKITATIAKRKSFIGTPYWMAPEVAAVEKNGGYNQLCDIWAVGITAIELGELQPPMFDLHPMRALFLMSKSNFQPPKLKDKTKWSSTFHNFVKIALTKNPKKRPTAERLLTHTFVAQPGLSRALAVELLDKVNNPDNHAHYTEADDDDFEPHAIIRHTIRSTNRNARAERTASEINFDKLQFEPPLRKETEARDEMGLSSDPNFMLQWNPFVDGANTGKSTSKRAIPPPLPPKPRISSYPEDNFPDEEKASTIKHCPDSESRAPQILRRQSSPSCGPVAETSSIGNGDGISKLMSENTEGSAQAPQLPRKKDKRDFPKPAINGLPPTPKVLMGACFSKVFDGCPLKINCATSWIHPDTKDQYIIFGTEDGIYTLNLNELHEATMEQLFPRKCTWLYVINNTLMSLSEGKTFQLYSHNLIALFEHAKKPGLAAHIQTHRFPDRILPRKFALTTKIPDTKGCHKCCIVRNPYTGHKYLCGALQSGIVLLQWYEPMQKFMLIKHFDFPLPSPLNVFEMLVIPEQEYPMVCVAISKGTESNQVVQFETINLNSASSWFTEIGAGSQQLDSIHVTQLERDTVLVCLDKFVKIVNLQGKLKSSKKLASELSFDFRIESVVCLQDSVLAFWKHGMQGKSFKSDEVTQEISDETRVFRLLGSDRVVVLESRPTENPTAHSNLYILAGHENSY
T4 sequence (Q15208 whole entry): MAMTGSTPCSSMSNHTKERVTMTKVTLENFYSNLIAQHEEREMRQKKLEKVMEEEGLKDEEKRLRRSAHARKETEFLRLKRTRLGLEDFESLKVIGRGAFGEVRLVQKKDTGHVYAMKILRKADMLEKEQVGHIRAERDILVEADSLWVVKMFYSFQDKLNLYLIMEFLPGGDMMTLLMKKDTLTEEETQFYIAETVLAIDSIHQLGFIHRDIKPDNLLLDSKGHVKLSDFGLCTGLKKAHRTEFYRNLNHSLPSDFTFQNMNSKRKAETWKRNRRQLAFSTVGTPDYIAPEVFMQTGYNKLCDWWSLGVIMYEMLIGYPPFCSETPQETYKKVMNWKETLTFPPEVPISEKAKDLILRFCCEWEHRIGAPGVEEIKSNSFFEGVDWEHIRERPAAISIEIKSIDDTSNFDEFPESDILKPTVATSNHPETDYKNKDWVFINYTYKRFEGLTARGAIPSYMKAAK

Question: Which results are given for `CNc1nc(Nc2ccc(C(=O)N3CCOCC3)cc2OC)nc2[nH]cc(C#N)c12` [Example 1, 2-((2-methoxy-4-(morpholine-4-carbonyl)phenyl)amino)-4-(methylamino)-7H-pyrrolo[2,3-d]pyrimidine-5-carbonitrile]?
Answer: remaining binding at 1 µM [1]: 100%; remaining binding at 1 µM [2]: 63%; remaining binding at 1 µM [3]: 97%; remaining binding at 1 µM [4]: 84%; remaining binding at 1 µM [5]: 0%; remaining binding at 1 µM [6]: 50%; remaining binding at 1 µM [7]: 89%; remaining binding at 1 µM [8]: 80%; remaining binding at 1 µM [9]: 31%; remaining binding at 1 µM [10]: 93%; remaining binding at 1 µM [11]: 94%; remaining binding at 1 µM [12]: 5%; remaining binding at 1 µM [13]: 98%; remaining binding at 1 µM ([14]; ABL1(T315I)-nonphosphorylated): 83%; remaining binding at 1 µM ([14]; ABL1(T315I)-phosphorylated): 59%; remaining binding at 1 µM [15]: 89%; remaining binding at 1 µM ([16]; KIT-autoinhibited): 59%; remaining binding at 1 µM ([16]; KIT): 48%

Question: What does the source list for `CC1(Nc2nc(Nc3cnn([C@H]4CCN(C5COC5)C[C@@H]4F)c3Cl)nc3[nH]cc(C#N)c23)CC1` [Example 52, 2-((5-chloro-1-((3S,4S)-3-fluoro-1-(oxetane-3-yl)piperidine-4-yl)-1H-pyrazole-4-yl)amino)((1-methylcyclopropyl)amino)-7H-pyrrolo[2,3-d]pyrimidine-5-carbonitrile]?
Answer: remaining binding at 1 µM [1]: 74%; remaining binding at 1 µM [2]: 3.7%; remaining binding at 1 µM [3]: 0.4%; remaining binding at 1 µM [4]: 42%; remaining binding at 1 µM [5]: 2.6%; remaining binding at 1 µM [6]: 6.4%; remaining binding at 1 µM [7]: 70%; remaining binding at 1 µM [8]: 68%; remaining binding at 1 µM [9]: 5.5%; remaining binding at 1 µM [10]: 24%; remaining binding at 1 µM [11]: 71%; remaining binding at 1 µM [12]: 1%; remaining binding at 1 µM [13]: 49%; remaining binding at 1 µM ([14]; ABL1(T315I)-nonphosphorylated): 0%; remaining binding at 1 µM ([14]; ABL1(T315I)-phosphorylated): 0.05%; remaining binding at 1 µM [15]: 30%; remaining binding at 1 µM ([16]; KIT-autoinhibited): 0.1%; remaining binding at 1 µM ([16]; KIT): 0.15%

Question: Which remaining binding at 1 µM [1] does the source give for `CCNc1nc(Nc2ccc(C(=O)N3CCC(N4CCOCC4)CC3)cc2OC)nc2[nH]cc(C(F)(F)F)c12` [Example 104, (4-((4-(ethylamino)-5-(trifluoromethyl)-7H-pyrrolo[2,3-d]pyrimidine-2-yl)amino)-3-methoxyphenyl)(4-morpholinopiperidine-1-yl)methanone] here?
Answer: 72%

Question: What about the remaining binding at 1 µM [2] of the same molecule?
Answer: 73%

Question: What about the remaining binding at 1 µM [3] of the same molecule?
Answer: 100%

Question: What about the remaining binding at 1 µM [4] of the same molecule?
Answer: 94%

Question: And the remaining binding at 1 µM [5]?
Answer: 2%

Question: What about the remaining binding at 1 µM [6] of the same molecule?
Answer: 91%

Question: What about the remaining binding at 1 µM [7] of the same molecule?
Answer: 100%

Question: What about the remaining binding at 1 µM [8] of the same molecule?
Answer: 90%

Question: And the remaining binding at 1 µM [9]?
Answer: 39%

Question: And the remaining binding at 1 µM [10]?
Answer: 64%

Question: What about the remaining binding at 1 µM [11] of the same molecule?
Answer: 90%

Question: And the remaining binding at 1 µM [12]?
Answer: 2.6%

Question: And the remaining binding at 1 µM [13]?
Answer: 73%

Question: And the remaining binding at 1 µM ([14]; ABL1(T315I)-nonphosphorylated)?
Answer: 100%

Question: And the remaining binding at 1 µM ([14]; ABL1(T315I)-phosphorylated)?
Answer: 98%

Question: What about the remaining binding at 1 µM [15] of the same molecule?
Answer: 100%

Question: What about the remaining binding at 1 µM ([16]; KIT-autoinhibited) of the same molecule?
Answer: 74%

Question: And the remaining binding at 1 µM ([16]; KIT)?
Answer: 56%
